In patent publication US20110039763A1, “TARGETED ANTIMICROBIAL MOIETIES” (C3 JIAN, INC., priority 2009, published 2011):
Entries after “also recorded” stand apart in the source; their conditions may differ. Ends that are not written are not given here.

B1: PF-C091: peptide having multiple activities (peptide)
chain 1: ASNTPRFVRLTLFNFYSKIWNVTHLFLFNNL
chain 2: ASNTPRFVRLTLFNFYSKIWNVTHLFLFNNL
modifications: Peptide with targeting and/or antimicrobial activity
B2: PF-270: peptide having multiple activities (peptide)
chain 1: MYLTPYAWIAVGSIFAFSVTTIKIGDQNDEKQKSHKNDVHKR
chain 2: MYLTPYAWIAVGSIFAFSVTTIKIGDQNDEKQKSHKNDVHKR
modifications: Peptide with targeting and/or antimicrobial activity
B3: PF-389: peptide having multiple activities (peptide)
chain 1: GLQFKEIAEEFHITTTALQQWHKDNGYPIYNKNNRK
chain 2: GLQFKEIAEEFHITTTALQQWHKDNGYPIYNKNNRK
modifications: Peptide with targeting and/or antimicrobial activity

Tests used:
microorganisms [1] = test: Peptide activities: targeting/binding, antimicrobial, growth or phenotype altering (Tables 7, 8); type: cell-based; conditions: peptides having multiple activities
microorganisms [2] = test: Targeting peptide binding to target microorganisms (Tables 3, 10, 12); conditions: microorganism(s) the targeting peptide binds, preferably 1x PBS
microorganisms [3] = test: Morphology, biofilm and growth disrupting peptides (Table 5); type: cell-based; parameters: key: A: Peptide aggregates; B: Less hyphal formation; Clumps; Diffuse clumps and small polyps; F: Diffuse growth; H: Thin; I: Growth inhibition; Microcolony formation; Rippled; Small polyps; Thick; W: Halo formation on top, microlonies on bottom
From the text: In certain embodiments peptides that induce alterations in phenotype or other biological activities can also be used as antimicrobial effector moieties.

[4] = binding in aqueous buffers varied with peptide solubility

Row | Molecule | Activities (microorganisms [1]) | Target(s) (microorganisms [2]; [4]) | Organism, effect (microorganisms [3]; S. pneumoniae) | other results
1 | PF-445: peptide having multiple activities (ASMTKRLKLAMSKV; Peptide with targeting and/or antimicrobial activity) | G B | M. luteus; also recorded: S. pneumoniae; also recorded: C. jeikeium | S. pneumoniae (M) | –
2 | PF-404: peptide having multiple activities (chain 1 VLYFQATVV; chain 2 VLYFQATVV; Peptide with targeting and/or antimicrobial activity) | G B | S. epidermidis; also recorded: E. coli; also recorded: P. aeruginosa; also recorded: E. faecalis; also recorded: C. jeikeium; also recorded: C. jejuni | – | Organism, effect: MRSA (microorganisms [3]; MRSA): MRSA (M); Organism, effect: S. epidermidis (microorganisms [3]; S. epidermidis): S. epidermidis (M)
3 | PF-C084: peptide having multiple activities (FFSVIFLFGLNYLICNSPLFNILR; Peptide with targeting and/or antimicrobial activity) | G B | A. naeslundii; also recorded: F. nucleatum; also recorded: P. gingivalis; also recorded: S. mutans | – | Organism, effect (microorganisms [3]; F. nucleatum): F. nucleatum (T); Organism, effect (microorganisms [3]; P. gingivalis): P. gingivalis (R); Organism, effect (microorganisms [3]; S. mutans): S. mutans (F)
4 | PF-381: peptide having multiple activities (chain 1 QGANPCQQVGFTVNDPDCRLAKTV; chain 2 QGANPCQQVGFTVNDPDCRLAKTV; Peptide with targeting and/or antimicrobial activity) | G B | E. coli; also recorded: P. aeruginosa; also recorded: C. jejuni | – | Organism, effect: E. coli (microorganisms [3]; E. coli): E. coli (R); Organism, effect: E. faecalis (microorganisms [3]; E. faecalis): E. faecalis (C); Organism, effect: MRSA (microorganisms [3]; MRSA): MRSA (C); Organism, effect: S. epidermidis (microorganisms [3]; S. epidermidis): S. epidermidis (C)
5 | PF-428: peptide having multiple activities (chain 1 ENEESIF; chain 2 ENEESIF; Peptide with targeting and/or antimicrobial activity) | G B | S. epidermidis; also recorded: C. albicans; also recorded: E. faecalis; also recorded: C. jeikeium | S. pneumoniae (H) | –
6 | PF-292: peptide having multiple activities (chain 1 SFVSTTVRLIFEESKRYKF; chain 2 SFVSTTVRLIFEESKRYKF; Peptide with targeting and/or antimicrobial activity) | G B | S. epidermidis; also recorded: B. subtilis; also recorded: B. fragilis | – | Organism, effect: B. subtilis (microorganisms [3]; B. subtilis): B. subtilis (C); Organism, effect: S. epidermidis (microorganisms [3]; S. epidermidis): S. epidermidis (C)
7 | PF-C139: peptide having multiple activities (chain 1 LLASHPERLSLGVFFVYRVLHLLLENT; chain 2 LLASHPERLSLGVFFVYRVLHLLLENT; Peptide with targeting and/or antimicrobial activity) | G B | A. naeslundii; also recorded: F. nucleatum; also recorded: P. gingivalis; also recorded: S. mutans; also recorded: T. denticola | – | Organism, effect (microorganisms [3]; S. mutans): S. mutans (F)
8 | PF-255: peptide having multiple activities (chain 1 DHKINESQHNPFRSDSNKQNVDFF; chain 2 DHKINESQHNPFRSDSNKQNVDFF; Peptide with targeting and/or antimicrobial activity) | G B | P. aeruginosa | – | Organism, effect: M. luteus (microorganisms [3]; M. luteus): M. luteus (M)
9 | PF-550: peptide having multiple activities (STENGWQEFESYADVGVDPRRYVPL; Peptide with targeting and/or antimicrobial activity) | G B | S. pneumoniae | – | Organism, effect (microorganisms [3]; B. subtilis): B. subtilis (D)
10 | PF-616: peptide having multiple activities (chain 1 IVFVVTKEKK; chain 2 IVFVVTKEKK; Peptide with targeting and/or antimicrobial activity) | G B | C. jeikeium | – | Organism, effect (microorganisms [3]; E. faecalis): E. faecalis (A); Organism, effect (microorganisms [3]; S. epidermidis): S. epidermidis (R)
11 | PF-433: peptide having multiple activities (chain 1 MRKEFHNVLSSGQLLADKRPARDYNRK; chain 2 MRKEFHNVLSSGQLLADKRPARDYNRK; Peptide with targeting and/or antimicrobial activity) | G B | S. epidermidis; also recorded: E. coli; also recorded: S. pneumoniae; also recorded: C. jeikeium | S. pneumoniae (H) | –
12 | PF-761: peptide having multiple activities (SKFELVNYASGCSCGADCKCASETECKCASKK; Peptide with targeting and/or antimicrobial activity) | G B | S. epidermidis and M. luteus and P. mirabilis and P. aeruginosa and C. albicans and MRSA and S. pneumoniae and E. faecalis | S. pneumoniae (C) | Organism, effect (microorganisms [3]; E. coli): E. coli (C); Organism, effect (microorganisms [3]; M. luteus): M. luteus (C); Organism, effect (microorganisms [3]; MRSA): MRSA (D); Organism, effect (microorganisms [3]; P. aeruginosa): P. aeruginosa (C); Organism, effect (microorganisms [3]; S. epidermidis): S. epidermidis (C); Organism, effect (microorganisms [3]; S. mutans): S. mutans (D)
13 | PF-413: peptide having multiple activities (chain 1 TFAGSIKIGVPDLVHVTFNCKR; chain 2 TFAGSIKIGVPDLVHVTFNCKR; Peptide with targeting and/or antimicrobial activity) | G B | P. aeruginosa; also recorded: C. albicans; also recorded: C. jejuni | – | Organism, effect: E. coli (microorganisms [3]; E. coli): E. coli (S); Organism, effect: MRSA (microorganisms [3]; MRSA): MRSA (C); Organism, effect: S. epidermidis (microorganisms [3]; S. epidermidis): S. epidermidis (C)
14 | PF-744: peptide having multiple activities (LGVGTFVGKVLIKNQQKQKSKKKAQ; Peptide with targeting and/or antimicrobial activity) | G B | S. epidermidis and M. luteus and E. coli and MRSA and S. pneumoniae and E. faecalis and C. jeikeium | S. pneumoniae (H) | –
15 | PF-015: peptide having multiple activities (SIDKRNLYNLKYYE; Peptide with targeting and/or antimicrobial activity) | G B | – | – | Target(s) (microorganisms [2]; binding in aqueous buffers that varied with peptide solubility): E. faecalis; also recorded: C. jeikeium; Organism, effect: MRSA (microorganisms [3]; MRSA): MRSA (W)
16 | PF-552: peptide having multiple activities (ELDKADAALGPAKNLAPLDVINRS; Peptide with targeting and/or antimicrobial activity) | G B | S. pneumoniae | – | Organism, effect (microorganisms [3]; B. subtilis): B. subtilis (D)
17 | PF-519: peptide having multiple activities (YLVYSGVLATAAAF-NH2) | G B | M. luteus; also recorded: E. faecalis; also recorded: C. jeikeium | S. pneumoniae (S) | Organism, effect (microorganisms [3]; E. coli): E. coli (R); Organism, effect (microorganisms [3]; E. faecalis): E. faecalis (C); Organism, effect (microorganisms [3]; MRSA): MRSA (C)
18 | PF-623: peptide having multiple activities (chain 1 VLFAVYLGALDWLFSWLTQKM; chain 2 VLFAVYLGALDWLFSWLTQKM; Peptide with targeting and/or antimicrobial activity) | G B | S. epidermidis and P. aeruginosa and MRSA and S. pneumoniae and E. faecalis and C. jeikeium | S. pneumoniae (D) | Organism, effect (microorganisms [3]; C. jeikeium): C. jeikeium (R); Organism, effect (microorganisms [3]; E. faecalis): E. faecalis (D); Organism, effect (microorganisms [3]; MRSA): MRSA (D); Organism, effect (microorganisms [3]; S. epidermidis): S. epidermidis (M)
19 | B1 | G B | A. naeslundii; also recorded: F. nucleatum; also recorded: P. gingivalis; also recorded: S. mutans; also recorded: T. denticola | – | Organism, effect (microorganisms [3]; F. nucleatum): F. nucleatum (T)
20 | B2 | G B | S. epidermidis; also recorded: M. luteus; also recorded: P. aeruginosa | – | Organism, effect: M. luteus (microorganisms [3]; M. luteus): M. luteus (H)
21 | B3 | G B | S. epidermidis and C. albicans and MRSA and S. pneumoniae and E. faecalis and C. jeikeium | – | Organism, effect: C. jejuni (microorganisms [3]; C. jejuni): C. jejuni (R); Organism, effect: E. faecalis (microorganisms [3]; E. faecalis): E. faecalis (R); Organism, effect: MRSA (microorganisms [3]; MRSA): MRSA (C); Organism, effect: S. epidermidis (microorganisms [3]; S. epidermidis): S. epidermidis (R); Organism, effect: S. pneumoniae (microorganisms [3]; S. pneumoniae): S. pneumoniae (D)
